Test results reported in patent US20240050344A1, “Methods of Enhancing Natural Defense in the Oral Cavity” (Colgate-Palmolive Company, priority 2021, published 2024).

Experiments:
U937 = assay: Phagocytosis assay with Latex Beads-Rabbit IgG-FITC, U937 cells; type: cell-based; conditions: FIG. 6
Description: (§1) Phagocytosis is a very important physiological process which is characterized by the ingestion of foreign particles and killing of microorganisms by phagocytic leukocytes (monocytes, macrophages, granulocytes). The phagocytic leukocytes are part of a first line of natural defense against potential pathogens. Phagocytotic active of phagocytes can be measured using a phagocytosis assay. The phagocytosis assay uses fluorescently-opsonized latex beads which are contacted with phagocytic cells. After maintaining the beads in contact with the cell, fluorescent reading of cells is used to assess the degree of phagocytosis. Thus, the degree of phagocytosis from cells treated with different compounds can be compared quantifiably.
EDTA chelates Zinc. Phagocytotic immune cells were contacted with fluorescently-opsonized latex beads in the presence of ZnCl2 and EDTA to determine the effect addition of zinc-chelating EDTA changes the effects of zinc on the phagocytotic activity of phagocytotic immune cells.
(§2) 96-well plates were seeded with either phagocytic immune cells THP1 (cat #TIB202, ATCC) and U937 (cat #CRL-1593.2, ATCC) at 5×10^4 cells/well in 100 μl of RPMI-1640 medium containing 10 ng/ml phorbol myristic acid (PMA, Sigma) for 48 hr in a CO2 incubator at 37° C.
(§3) Medium was changed with 100 μl/ml of RPMI-1640 (Item #500290, Cayman). U937 cells were treated with ZnCl2 or ZnCl2 and EDTA. THP1 cells were treated with ZnO or ZnO plus EDTA. 10 μl of the Latex Beads-Rabbit IgG-FITC solution were added to each well. Plates were mixed gently and cells were incubated in a CO2 incubator at 37° C. for 24-48 hrs.
(§4) After incubation, plates were centrifuged for 5 minutes at 400×g at room temperature. Supernatant was carefully aspirated. 50 μl of Trypan blue solution was added to each well and plates were incubated for 1-2 mins at room temperature. Plates were centrifuged for 5 minutes at 400×g at room temperature. Supernatant was carefully aspirated. Fluorescent intensity was read using in plate reader at excitation 485/emission 535 nm.

THP1 = assay: Phagocytosis assay with Latex Beads-Rabbit IgG-FITC, THP1 cells; type: cell-based; conditions: FIG. 7; for phagocytosis activity: versus EDTA control
Description: as §1, §2, §3, §4

## [Cl-].[Cl-].[Zn+2] [ZnCl2]
U937; 12.5 μM, versus untreated control
  phagocytosis activity: more phagocytosis activity than untreated control cells
U937; 25 μM, versus untreated control
  phagocytosis activity: more phagocytosis activity than untreated control cells

## [O]=[Zn] [ZnO, zinc oxide]
THP1; 6.25 μM compared with 12.5 μM and 25 μM
  phagocytosis activity, comparison among the tested ZnO amounts: greatest increase
THP1; 6.25 μM
  phagocytosis activity: more phagocytosis activity than EDTA control cells
THP1; 12.5 μM
  phagocytosis activity: more phagocytosis activity than EDTA control cells
THP1; 25 μM
  phagocytosis activity: more phagocytosis activity than EDTA control cells

## O=C(O)CN(CCN(CC(=O)O)CC(=O)O)CC(=O)O [EDTA]
U937; EDTA alone versus untreated control
  phagocytosis activity: No difference in phagocytosis activity
